From publication PMC3514216, “SRC Homology 2 Domain Binding Sites in Insulin, IGF-1 and FGF receptor mediated signaling networks reveal an extensive potential interactome” (Cell Communication and Signaling : CCS, 2012)

System: panel of 50 SH2 domains
Experiment: SPOT peptide array probed with each of 50 GST-SH2 domains
Assay type: binding
Conditions: SPOT192 peptide array; for 2X < SH2 Domains < 3X: list of GST-SH2 domains with spot intensity between 2X and 3X array mean (indeterminate range); for SH2 Domains >3X: list of GST-SH2 domains with spot intensity >3X array mean (array-positive)
From the text: The use of addressable peptide arrays is a reproducible and semi-quantitative approach that has been extensively validated for studying protein interactions with peptide ligands. To investigate connections between SH2 domain proteins and their putative phosphorylated docking sites on cell surface receptors, we developed addressable arrays consisting of 192 phosphotyrosine peptides. This peptide set was assembled using 71 phosphotyrosine peptide motifs corresponding to all of the cytoplasmic tyrosine residues within the FGF receptors (FGFR1-4), insulin receptor (InsR) and IGF-1 receptor (IGF-1R) (Figure 1A). Activation of these receptors results in the phosphorylation of associated scaffold proteins, and so 75 phosphotyrosine peptides corresponding to a comprehensive list of tyrosine residues within insulin receptor substrates (IRS-1 and IRS-2) and fibroblast receptor substrates (FRS-2 and FRS-3) were included. In addition, 33 phosphotyrosine peptides were incorporated from the downstream signaling proteins PLC-γ1, p130Cas (BCAR1) and p62DOK1. […] These control peptides provide a reference and establish the empirical cut-off for designated binding interactions (Table 1). No discrimination was made against peptides on the basis of reported phosphorylation state in order to examine a diverse and unbiased set of motifs. The resulting set of 192 phosphotyrosine peptides and their corresponding position in the proteins of origin is noted in Additional file 1: Table S1. Addressable arrays were synthesized as membrane-bound 11-mer peptides using the SPOT synthesis technique. While the majority of SH2 domains recognize residues C-terminal to the phosphotyrosine in their cognate peptide ligands, additional contacts between SH2 domains and residues N-terminal to the phosphotyrosine are observed for the SH2 domain of Sh2d1a (SAP) and cannot be ruled out in other cases. Peptides were synthesized with six flanking residues C-terminal to the phosphotyrosine and four residues N-terminal to the phosphotyrosine.
To assess the potential network of SH2 domain interactions we selected 50 SH2 domains representing 28 of the 38 families of SH2 domains (Figure 1B) all of which we have previously shown can be expressed and purified. These include a number of extensively studied SH2 domains (Src, Grb2, PLCγ), as well as a number of less studied SH2 domains from proteins such as Shd, She, Shf, Slnk (Sh2d6), Sh2d1a (SAP), Sh2d1b (Eat-2), and Brdg1. To address potential variability in specificity within families we employed all members from the SHB, CRK, GRB2, SRC and ABL families (families are indicated with complete Capitalized lettering).
SH2 domains were arrayed as GST fusion proteins and detected using anti-GST primary antibodies and near-infrared labeled secondary antibodies. In an effort to present a dataset with minimal false positives, we chose an empirical cutoff based on the array average across all peptide spots to classify interactions (Figure 1A). In cases where the intensity of the signal for an individual SH2-domain binding event exceeded the mean intensity of all the peptides on the membrane by three-fold were scored as “array positives” [22]. Non-binding was judged in cases where the intensity of a spot was less than the mean intensity of all spots on the membrane and these were scored as “array negatives”. Peptides with signal intensities between 1X and 3X mean were scored as “indeterminate” and ascribed as neither array positive binding interactions nor array-negative non-binders. […] This signature may be indicative of promiscuity differences between phosphopeptides or there may be a subset of peptides which interact in a nonspecific fashion with either the GST fusion tag or one of the antibodies used for detection, resulting in false positives. […]

Row | Substance | 2X < SH2 Domains < 3X | SH2 Domains >3X
1 | RSDDpYMPMSPA [D19] | PI3K1_C | –
2 | RTELpYAVIDIE [G10] | ABL1, BRK, RASA1_C, SHD, YES | ABL2, BMX, ITK, MIST, PLCG2_C, RASA1_N, Sh2b, SH2D1B, SHB, SHF, SHE, SYK_C
3 | SDAYpYGPEDPH [C11] | BLK, BMX, DAPP1, FYN, GRB7, LCK, LYN, PLCG2_C, RASA1_C, SH2D1B, SHC1 | –
4 | SDDDpYDDVDIP [A12] | – | BRK, NCK1, SLNK
5 | SGTSpYGKLWTN [C08] | CRKL, DAPP1, GADS, ITK, MATK, PLCG2_C, PTPN11_N, RIN1, Sh2b, SH3BP2, SHB, SHD, SHE, YES | BCAR3, BMX, BRDG1, CRK, FER, MIST, PTPN11_C, SH2D1B, SHC1, SHF, SYK_C, TENC1
6 | SIEEpYTEMMPA [C03] | BLK, FER, FGR, LCK, PI3K1_C | BRK, SHC1
7 | SLDEpYGSSPGD [D09] | BLK, LCK | SLNK
8 | SLDEpYTLMRAT [D14] | PI3K1_C | –
9 | SLPQpYPHINGS [F06] | – | ZAP70_N
10 | SLTIpYAQVQKA [A08] | MIST, PI3K1_N, PTPN11_N, PTPN11_C, RIN1, Sh2b, SHC1, SHD, SYK_C | BCAR3, BMX, BRDG1, FER, MATK, SH2D1B, TENC1
11 | SNPEpYLSASDV [A19] | – | VAV1
12 | SPGEpYVNIEFG [C16] | ABL1, ABL2, BRK, FYN, HCK, LCK, LYN, SH2D1B, SRC, TENC1 | BLK, BMX, DAPP1, FGR, GADS, GRAP, GRB2, GRB7, ITK, MIST, PI3K1_N, PI3K1_C, PLCG2_C, PTPN11_N, PTPN11_C, RASA1_N, RASA1_C, Sh2b, SH2D2A, SHB, SHF, SHD, SHE, SYK_C, VAV1, YES
13 | SQVNpYRVPNMR [G16] | BMX, CRKL, PLCG2_C | BCAR3, BRDG1, MIST, PLCG2_N, SHF, TENC1
14 | SRGDpYMTMQMS [C19] | – | PI3K1_C
15 | SSDSpYAVIDLK [G15] | HCK | SH2D1B, SHC1, SHIP1
16 | STDEpYLDLSAP [F11] | – | LCK
17 | STVEpYSTVVHS [A11] | ABL2, RIN1 | BRDG1, BRK, CRK, PTPN11_N, PTPN11_C, SH2D1B, SHC1, SHIP1
18 | SVIVpYKMKSGT [E04] | BRK, FER, MIST, PTPN11_C, SHF, SHD, SYK_C | BCAR3, BMX, BRDG1, TENC1
19 | TDDGpYMPMSPG [C06] | FYN | HCK, PI3K1_C, SRC
20 | TEPTpYFYVTDY [A14] | MATK, PLCG2_N, SH2D1B, SYK_C | BRK, ITK, RASA1_N
21 | TFGPpYSPSGGD [F19] | ZAP70_N | –
22 | THDLpYMIMREC [F10] | PI3K1_C | –
23 | TKDEpYFAVAAE [D04] | SH2D1B | –
24 | TNEEpYLDLSQP [F02] | BLK, FYN, SH2D1B, SRC, ZAP70_N | –
25 | TNELpYMMMRDS [E17] | PI3K1_C | –

Row | Substance | 2X < SH2 Domains < 3X | SH2 Domains >3X
26 | TRDIpYETDpYpYR [A13] | FGR, HCK, RASA1_N, SH2D1B, SRC, FGR, GRB7, LCK, LYN, MIST, RIN1 | ABL2, BCAR3, CRK, CRKL, DAPP1, GRB7, PI3K1_C, PLCG2_C
27 | VFTTpYSDVWSF [B13] | BCAR3, CRK, NCK1, PI3K1_N, SHIP1 | ABL1, ABL2, BRK, ITK, RASA1_N, RASA1_C, RIN1, SH2D1B, SH2D2A, SHC1
28 | VIMLpYVFHRKR [B11] | GRB2, PI3K1_C, PLCG2_C, SH3BP2, SYK_C | BCAR3, BMX, BRDG1, BRK, DAPP1, FER, MATK, MIST, PI3K1_N, PLCG2_N, PTPN11_N, PTPN11_C, RASA1_C, RIN1, SHB, SHF, SHD, SHE, TENC1
29 | VIVEpYASKGNL [E07] | BCAR3 | –
30 | VKWHpYLALRRY [F21] | FGR, ITK, RASA1_C, SH2D2A, SHE, SYK_C | BCAR3, BMX, BRDG1, BRK, DAPP1, FER, GRB2, MATK, MIST, PI3K1_N, PI3K1_C, PLCG2_N, PLCG2_C, PTPN11_N, PTPN11_C, RIN1, Sh2b, SH3BP2, SHB, SHF, SHD, TENC1
31 | VLSYpYSLPRSF [C13] | BRDG1, PLCG2_C, PTPN11_C, SHB | CRK, CRKL, Sh2b, SH2D2A, SHF, SYK_C
32 | VLVEpYAAKGNL [F08] | MIST, ZAP70_N | –
33 | VNPEpYFSAADV [B12] | Sh2b | –
34 | VSCApYQVARGM [E11] | CRK, ITK, MIST, PLCG2_N, SHB, SHF | BRDG1
35 | VSCApYQVARGM [F14] | CRK, ITK, MIST, PLCG2_N, PLCG2_C, SHF, SYK_C | BRDG1
36 | VSCTpYQLARGM [E23] | ITK, PLCG2_C, SHB | BRDG1, MIST, PLCG2_N, SHF
37 | VSEEpYLDLRLT [F18] | – | BMX, RASA1_N, SHB, SHD
38 | VSFYpYSEENKP [B16] | ABL2, MATK | ABL1, BCAR3
39 | WDTGpYDSDERR [G03] | DAPP1, FER, HCK, ZAP70_N | SH3BP2, SRC
40 | WMEDpYDYVHLQ [H12] | ABL1, BLK, FYN, HCK, LCK, LYN, PLCG2_C, SH2D1B, SHB, SHC1, SHIP1, SRC | BCAR3, BMX, BRK, CRK, CRKL, DAPP1, FER, GRB7, ITK, MATK, NCK1, PI3K1_N, PLCG2_N, RASA1_N, RASA1_C, RIN1, SH3BP2, TENC1
41 | WRGDpYGGKKQL [H04] | BMX, ITK, PLCG2_N, Sh2b, SH3BP2, SHF, SHD, SYK_C | BCAR3, BRDG1, BRK, DAPP1, FER, MIST, RIN1, TENC1
42 | WYPHpYFVLTSS [G24] | BCAR3, GRB7, SHC1 | ABL2, CRK, CRKL, ITK, MATK, MIST, PI3K1_C, PTPN11_C, SH2D1B, SHD, SHIP1, ZAP70_N
43 | YELPpYNPATDD [H22] | – | SLNK
44 | YETDpYYRKGGK [B01] | FER, MIST, PTPN11_C, SH2D2A, SHB, SHF, SHD, SHE, SYK_C | BCAR3, BMX, BRDG1, BRK, ITK, PLCG2_N, RIN1, TENC1
45 | YGALpYEGRNPG [H02] | SH3BP2, ZAP70_N | –
46 | YKAPpYTAGGDS [D22] | – | MIST
47 | YPEDpYGDIEIG [D17] | BLK, FER, FYN, HCK, GRB7, ITK, LCK, LYN, RASA1_N, SH2D1B, SHC1, YES | BMX, BRK, FGR, SLNK, SRC
48 | YVTDpYLDVPSN [A16] | BRK, RASA1_N | SLNK
49 | YWDLpYEHAQQQ [H18] | CRKL | ABL1, BCAR3, BMX, FER, ITK, MATK, RASA1_N, RASA1_C, SH3BP2, SHB, TENC1
